From patent publication US10874743B2, “IRAK degraders and uses thereof” (Kymera Therapeutics, Inc., priority 2017, dated 2020)
Read-outs that look alike come from different tables or passages of the source.

Test: Pharmacokinetics in Sprague Dawley rats (plasma and brain concentrations, PK parameters)
Type: in vivo
Details: for half-life: read-out: T1/2 (converted)
Procedure: Pharmacokinetics for I-127, I-172 and I-210 were determined in Sprague Dawley rats or CD-1 mice by dosing intravenous (IV), subcutaneous (SC) or per oral (PO) using facility SOPs and sampling plasma at required time points. Species, formulation, route of administration and time points samples are listed below for each compound.
Compounds were extracted from plasma, injected on reverse phase HPLC, eluted with a gradient from 5% to 95% acetonitrile in water and quantified by mass spectrometry with internal standard. Data are expressed in ng compound per mL of plasma.

[1] = Sprague Dawley, rat, plasma, po, 10 mg/kg, Sprague Dawley rat, po 10 mg/kg, plasma, Rat 4, read-out: Concentration Rat 4
[2] = Sprague Dawley, rat, plasma, po, 10 mg/kg, Sprague Dawley rat, po 10 mg/kg, plasma, Rat 5, read-out: Concentration Rat 5
[3] = Sprague Dawley, rat, plasma, po, 10 mg/kg, Sprague Dawley rat, po 10 mg/kg, plasma, Rat 6, read-out: Concentration Rat 6
[4] = Sprague Dawley, rat, plasma, po, 10 mg/kg, Sprague Dawley rat, po 10 mg/kg, plasma, mean of 3 rats, read-out: Concentration Mean
[5] = Sprague-Dawley, rat, plasma, iv, 3 mg/kg, Sprague Dawley rat, iv 3 mg/kg, plasma, Rat 1, read-out: Concentration Rat 1
[6] = Sprague-Dawley, rat, plasma, iv, 3 mg/kg, Sprague Dawley rat, iv 3 mg/kg, plasma, Rat 2, read-out: Concentration Rat 2
[7] = Sprague-Dawley, rat, plasma, iv, 3 mg/kg, Sprague Dawley rat, iv 3 mg/kg, plasma, Rat 3, read-out: Concentration Rat 3
[8] = Sprague-Dawley, rat, plasma, iv, 3 mg/kg, Sprague Dawley rat, iv 3 mg/kg, plasma, mean of 3 rats, read-out: Concentration Mean

Compound: O=C1CCC(N2C(=O)c3cccc(NCCOCCOCCNCc4ccc(-n5cc(NC(=O)c6coc(-c7ccnc(NCC8CC8)c7)n6)c(C(F)F)n5)cc4)c3C2=O)C(=O)N1 (stereo not drawn) [I-210, 2-[2-(Cyclopropylmethylamino)-4-pyridyl]-N-[3-(difluoromethyl)-1-[4-[[2-[2-[2-[[2-(2,6-dioxo-3-piperidyl)-1,3-dioxoisoindolin-4-yl]amino]ethoxy]ethoxy]ethylamino]methyl]phenyl]pyrazol-4-yl]oxazole-4-carboxamide]
- AUC(0-t) (Sprague Dawley, rat, plasma, po, 10 mg/kg, Rat (Sprague Dawley) po 10 mg/kg, Mean, read-out: AUClast): 15.2 ng·h/mL
- Cmax (Sprague Dawley, rat, plasma, po, 10 mg/kg, Rat (Sprague Dawley) po 10 mg/kg, Mean, read-out: Cmax): 2.91 ng/mL
- MRT inf (Sprague Dawley, rat, plasma, po, 10 mg/kg, Rat (Sprague Dawley) po 10 mg/kg, Mean, read-out: MRTInf_obs): 8.9 h
- half-life (Sprague Dawley, rat, plasma, po, 10 mg/kg, Rat (Sprague Dawley) po 10 mg/kg, Mean): 4.88 h
- MRT inf (Sprague Dawley, rat, plasma, po, 10 mg/kg, Rat (Sprague Dawley) po 10 mg/kg, individual Rat 4-6, read-out: MRTInf_obs): 7.27 h
- half-life (Sprague Dawley, rat, plasma, po, 10 mg/kg, Rat (Sprague Dawley) po 10 mg/kg, individual Rat 4-6): 3.72 h
- concentration at 0.25 h [1]: 0.716 ng/mL
- concentration at 0.25 h [2]: 0.359 ng/mL
- concentration at 0.25 h [3]: 0.3 ng/mL
- concentration at 0.25 h [4]: 0.458 ng/mL
- concentration at 0.5 h [1]: 0.914 ng/mL
- concentration at 0.5 h [2]: 0.366 ng/mL
- concentration at 0.5 h [3]: 0.377 ng/mL
- concentration at 0.5 h [4]: 0.552 ng/mL
- concentration at 1 h [1]: 1.39 ng/mL
- concentration at 1 h [2]: 0.438 ng/mL
- concentration at 1 h [3]: 0.426 ng/mL
- concentration at 1 h [4]: 0.75 ng/mL
- concentration at 2 h [1]: 1.55 ng/mL
- concentration at 2 h [2]: 2.39 ng/mL
- concentration at 2 h [3]: 0.737 ng/mL
- concentration at 2 h [4]: 1.56 ng/mL
- concentration at 4 h [1]: 3.5 ng/mL
- concentration at 4 h [2]: 4.02 ng/mL
- concentration at 4 h [3]: 1.2 ng/mL
- concentration at 4 h [4]: 2.91 ng/mL
- concentration at 8 h [1]: 1.66 ng/mL
- concentration at 8 h [2]: 2.46 ng/mL
- concentration at 8 h [3]: 0.71 ng/mL
- concentration at 8 h [4]: 1.61 ng/mL
- concentration at 4 h (Sprague-Dawley, rat, brain, iv, 3 mg/kg, Rat (Sprague Dawley) iv 3 mg/kg (IVB), brain, Group 1, Group 2, detected value multiplied by 3, read-out: brain Actual Conc.): 42.6 ng/g
- concentration at 4 h (Sprague-Dawley, rat, brain, iv, 3 mg/kg, Rat (Sprague Dawley) iv 3 mg/kg (IVB), brain, Mean, read-out: brain Actual Conc.): 39.9 ng/g
- MRT inf (Sprague-Dawley, rat, plasma, iv, 3 mg/kg, Sprague Dawley rat, iv 3 mg/kg, Rat 1, read-out: MRTInf_obs Rat 1): 3.26 h
- MRT inf (Sprague-Dawley, rat, plasma, iv, 3 mg/kg, Sprague Dawley rat, iv 3 mg/kg, Rat 2, read-out: MRTInf_obs Rat 2): 3.15 h
- MRT inf (Sprague-Dawley, rat, plasma, iv, 3 mg/kg, Sprague Dawley rat, iv 3 mg/kg, Rat 3, read-out: MRTInf_obs Rat 3): 2.92 h
- MRT inf (Sprague-Dawley, rat, plasma, iv, 3 mg/kg, Sprague Dawley rat, iv 3 mg/kg, mean of 3 rats, read-out: MRTInf_obs Mean): 3.11 h
- concentration at 5 min [5]: 671 ng/mL
- concentration at 5 min [6]: 652 ng/mL
- concentration at 5 min [7]: 700 ng/mL
- concentration at 5 min [8]: 674 ng/mL
- concentration at 0.25 h [5]: 396 ng/mL
- concentration at 0.25 h [6]: 418 ng/mL
- concentration at 0.25 h [7]: 469 ng/mL
- concentration at 0.25 h [8]: 428 ng/mL
- concentration at 0.5 h [5]: 307 ng/mL
- concentration at 0.5 h [6]: 292 ng/mL
- concentration at 0.5 h [7]: 312 ng/mL
- concentration at 0.5 h [8]: 304 ng/mL
- concentration at 1 h [5]: 236 ng/mL
- concentration at 1 h [6]: 232 ng/mL
- concentration at 1 h [7]: 207 ng/mL
- concentration at 1 h [8]: 225 ng/mL
- concentration at 2 h [5]: 141 ng/mL
- concentration at 2 h [6]: 159 ng/mL
- concentration at 2 h [7]: 132 ng/mL
- concentration at 2 h [8]: 144 ng/mL
- concentration at 4 h [5]: 86 ng/mL
- concentration at 4 h [6]: 77.7 ng/mL
- concentration at 4 h [7]: 64.5 ng/mL
- concentration at 4 h [8]: 76.1 ng/mL
- concentration at 8 h [5]: 27.5 ng/mL
- concentration at 8 h [6]: 24.8 ng/mL
- concentration at 8 h [7]: 20.3 ng/mL
- concentration at 8 h [8]: 24.2 ng/mL
- concentration at 24 h [5]: 0.454 ng/mL
- concentration at 24 h [6]: 0.545 ng/mL
- concentration at 24 h [7]: 0.488 ng/mL
- concentration at 24 h [8]: 0.496 ng/mL
- Tmax (plasma, Rat (Sprague Dawley) po 10 mg/kg, individual Rat 4-6): 4 h
